# Tested on: HCV genotype 1b
# Test: HCV 1b replicon luciferase assay
# Format: cell-based
# Conditions: Hepatitis C virus, Huh-7, 48 h, Table 1; Huh7 HCV 1b replicon, luciferase reporter, 48 hours; read-out: 1b EC50
# Description: A suitable 1b HCV RNA replicon assay uses the Huh7 cell line which contains an HCV 1b RNA replicon with a stable luciferase (LUC) reporter. This construct contains modifications that make the cell line more robust and provides stable LUC expression for antiviral screening. The LUC reporter is used as an indirect measure of HCV replication. The activity of the LUC reporter is directly proportional to HCV RNA levels and positive control antiviral compounds behave comparably using LUC endpoints. […]
# Fresh growth medium is prepared just before use. The container used in the procedure is a 10 cm diameter culture dish. HCV replicon reporter cell lines are used. Prepare complete medium: add FBS and appropriate additives as described in “Culture Media”, below. Pre-warm the medium in a 37° C. thermostat water bath. Remove the dish from a 37° C. CO2 incubator. Check the cell name and complete medium and passage number marked on the dish. Aspirate the medium carefully and add 1 ml PBS to rinse the cells. Remove and discard the solution and add 1 ml of 0.25% Trypsin/0.02% EDTA. Rinse the cells with the added Trypsin/EDTA to ensure all the cells have been rinsed. Remove the Trypsin/EDTA with a vacuum pump and incubate at 37° C. for 3-5 minutes. Examine the cell morphology under an inverted microscope to confirm that a single cell suspension is clearly visible. Add 3 ml of complete medium to the dish and suspend the cell by gentle pipetting. Count the cell numbers with a hematometer. Adjust cell density to 100 k/ml by adding appropriate volume of the complete medium. Add 100 μl of cell suspension to each well of a 96-well white plate; the cell density is thus 10 k per well. Mark the plate with cell name, passage number, seeding density, date and the name of the operator. Place the 96-well assay plate in 37° C. 5% CO2 incubator for 24 hours.
# Compounds are prepared or provided at 25 mM in 100% DMSO. This is the compound stock solution. The dilution procedure should be performed in a cell culture hood. Dispense the stock solution into the second column of a 96-well plate. Prepare 9-step (10 concentrations total), 5-fold serial dilutions by transferring 10 μA of the compound into the next well containing 40 μA of DMSO. Repeat for all compounds. Aspirate 2 μl of the above compound solution from each well and add into 198 μl complete media using a 12-channel pipetter to obtain the 10-fold concentration compound solution with 1% DMSO, mix well.
# Remove the 96-well assay plate from the 37° C./5% CO2 incubator, examine the cell morphology under an inverted microscope. In a cell culture hood, add 10 μl of the 10× concentration compounds solution into each well on the 96-well assay plate. All compound's dose responses are done in duplicate. The starting final concentration of the compounds is 25 μM, and DMSO final concentration 0.1%. Mark the plate with compound code(s) and concentrations. Place the 96-well assay plate into CO2 incubator for 48 hours. Add 30 μl of Stead-Glo Luciferase System (Promega) reagent to each well and mix by gentle shaking on a plate shaker for 5 minutes to allow throughout cell lysis. Measure the luminescence with Envision (Perkin Elmer) with an integration time of 2 seconds. Record and analyze the data.
# The cell culture media is DMEM complete: DMEM (Life Technologies #41965-039) supplemented with 10% FCS, 2 mM Glutamin (Life Technologies #25030-024), Penicillin (100 IU/ml)/Streptomycin (100 μg/ml) (Life Technologies #15140-114) and 1× nonessential amino acids (Life Technologies #11140-035). G418 (“Geneticin”, Life Technologies): concentrations are given as weight per volume of the original substance. Specific activity of a typical batch is ca. 700 μg/mg as stated by the manufacturer. […] Therefore each new batch of G418 should be tested individually e.g. in an electroporation experiment using different selection conditions (0.2-1 mg/ml).
row,SMILES,EC50 [µM]
1,CCn1nc(C(=O)NC2CCNCC2)c2ccc(N3CCCCCC3)nc21 [compound 856],3.7
2,CC(C)n1nc(C(=O)NC2CCNCC2)c2ccc(N3CCCCCC3)nc21 [compound 857],3.1
3,CCCn1nc(C(=O)NC2CCNCC2)c2ccc(N3CCCCCC3)nc21 [compound 858],3.3
4,CCC(CC)n1nc(C(=O)NC2CCNCC2)c2ccc(N3CCCCCC3)nc21 [compound 859],2.8
5,CCN(CC)c1ccc2c(C(=O)NC3CCNCC3)nn(C)c2n1 [compound 860],2.9
6,Cn1nc(C(=O)NC2CCNCC2)c2ccc(N3CCCCC3)nc21 [compound 861],7.3
7,Cn1nc(C(=O)NC2CCNCC2)c2ccc(NC3CCCCC3)nc21 [compound 862],2.6
8,Cn1nc(C(=O)NC2CCNCC2)c2ccc(NCC3CCCCC3)nc21 [compound 863],1.3
9,Cn1nc(C(=O)NC2CCNCC2)c2ccc(NC3CCCCCC3)nc21 [compound 866],1.1
10,CN(CC1CCCCC1)c1ccc2c(C(=O)NC3CCNCC3)nn(C)c2n1 [compound 867],0.934
11,Cn1nc(C(=O)NC2CCNCC2)c2ccc(N3CCC(Cc4ccccc4)CC3)nc21 [compound 868],2.4
12,Cn1nc(C(=O)NCC2CCCNC2)c2ccc(N3CCCCCC3)nc21 (stereo not drawn) [compound 872],8.1
13,Cn1nc(C(=O)NC2CCNCC2)c2ccc(OC3CCCCCC3)nc21 [compound 873],4.7
14,CC1CCC(Oc2ccc3c(C(=O)NC4CCNCC4)nn(C)c3n2)C(C(C)C)C1 (stereo not drawn) [compound 874],1.7
15,O=C(NC1CCNCC1)c1nn2c3nc(ccc13)OC/C=C\CCCCC2 [compound 876],7.5
16,O=C(NC1CCNCC1)c1nn2c3nc(ccc13)OC/C=C/CCCCC2 [compound 877],3.3
17,CC1CCCCC1Oc1ccc2c(C(=O)NC3CCNCC3)nn(C)c2n1 (stereo not drawn) [compound 878],2.8

row,SMILES,EC50 [µM]
1,CC1CCC(Oc2ccc3c(C(=O)NC4CCNCC4)nn(C)c3n2)CC1 (stereo not drawn) [compound 879],3.9
2,Cn1nc(C(=O)NC2CCNCC2)c2ccc(NC3CCCCCCC3)nc21 [compound 885],0.889
3,Cn1nc(C(=O)NC2CCNCC2)c2ccc(N3CCCCCCC3)nc21 [compound 886],0.798
4,CN(c1ccc2c(C(=O)NC3CCNCC3)nn(C)c2n1)C1CCCCCC1 [compound 891],1.1
5,CN(c1ccc2c(C(=O)NC3CCNCC3)nn(C)c2n1)C1CCCCC1 [compound 892],1.5
6,CN(c1ccc2c(C(=O)NC3CCNCC3)nn(C)c2n1)C1CCCCCCC1 [compound 893],1.1
7,Cn1nc(CN[C@H]2CCNC2)c2ccc(N3CCCCCC3)nc21 [compound 908],8.7
8,CC1CC(NCc2nn(C)c3nc(N4CCCCCC4)ccc23)CCN1 (stereo not drawn) [compound 909],4
9,CN1C2CCC1CC(NCc1nn(C)c3nc(N4CCCCCC4)ccc13)C2 (stereo not drawn) [compound 910],3.9
10,Cn1nc(C(=O)NC2CCNCC2)c2ccc(OC3CCCC3)nc21 [compound 912],6.9
11,CCC(CC)Oc1ccc2c(NC(=O)C3CCCNC3)nn(C)c2n1 (stereo not drawn) [compound 938],8.2
12,CCC(CC)Oc1ccc2c(NC(=O)c3ccncc3)nn(C)c2n1 [compound 939],4.7
13,CCC(CC)Oc1ccc2c(NC(=O)c3ccccc3)nn(C)c2n1 [compound 942],8.6
14,C[C@@H]1CCC[C@H]1Oc1ccc2c(C(=O)NC3CCNCC3)nn(C)c2n1 [compound 945],2.6
15,CC1CCC(Oc2ccc3c(C(=O)NC4CCNCC4)nn(C)c3n2)C1 (stereo not drawn) [compound 946],3.7
16,CCC(CC)Oc1ccc2c(NC(=O)[C@H]3CC[C@H](N)CC3)nn(C)c2n1 [compound 949],5.7
17,CCC(CC)Oc1ccc2c(NC(=O)C3CC(C)(C)NC(C)(C)C3)nn(C)c2n1 [compound 950],7.9

# Same assay, conditions: Table 1; Huh7 HCV 1b replicon, luciferase reporter, 48 hours; read-out: 1b EC50
row,SMILES,EC50 [µM]
1,Cn1nc(C(=O)NC2CC3CCCC(C2)N3)c2ccc(N3CCCCCC3)nc21 (stereo not drawn) [compound 880],8.1
2,Cn1nc(C(=O)NC2CCNCC2)c2ccc(OC3CCCCC3)nc21 [compound 913],4.7

# Reference: US20120232062A1, “AZAINDAZOLES TO TREAT FLAVIVIRIDAE VIRUS INFECTION” (EIGER BIOPHARMACEUTICALS, INC., priority 2009, published 2012)
